Assay results as given in US20180244653A1, “SELECTIVE ALPHA-7 NICOTINIC RECEPTOR AGONISTS AND METHODS FOR MAKING AND USING THEM” (THE REGENTS OF THE UNIVERSITY OF CALIFORNIA, priority 2015, published 2018).
Values joined by “and” are separate entries in the source; they are usually repeats but may differ in a detail not shown here. Equal values may be shown once. “Also recorded” adds a separate entry of the source. Read-outs that look alike come from different tables or passages of the source.

What was measured:
5HT3A receptors [1] = molecular target: T1, 5HT3A receptors (Mus musculus, UniProt P23979); test: Intact cell competitive radioligand binding assay ([3H]-granisetron, SPA), LGIC-CNiFERs; settings: >10 = did not pass initial screen at 10 μM
T1 construct: expressed in transfected cells; host or cells: HEK293 cells co-expressing TN-XXL
T1 sequence (P23979 24-489): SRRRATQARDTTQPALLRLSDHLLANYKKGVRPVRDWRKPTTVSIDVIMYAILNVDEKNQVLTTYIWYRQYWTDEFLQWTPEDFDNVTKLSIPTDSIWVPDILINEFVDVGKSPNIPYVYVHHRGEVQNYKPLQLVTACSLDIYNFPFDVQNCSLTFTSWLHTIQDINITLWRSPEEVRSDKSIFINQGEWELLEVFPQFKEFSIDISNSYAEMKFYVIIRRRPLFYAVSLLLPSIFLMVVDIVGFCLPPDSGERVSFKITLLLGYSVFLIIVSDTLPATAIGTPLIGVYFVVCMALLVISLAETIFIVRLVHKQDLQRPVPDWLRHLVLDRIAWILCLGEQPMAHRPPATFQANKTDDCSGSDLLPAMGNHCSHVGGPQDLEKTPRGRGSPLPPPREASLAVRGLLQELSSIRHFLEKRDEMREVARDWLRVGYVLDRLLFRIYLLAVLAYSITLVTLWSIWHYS

5HT3A receptors [2] = molecular target: T1, 5HT3A receptors; test: FRET functional assay (agonist/antagonist) using LGIC-CNiFERs; format: cell-based; settings: for Kd / Antagonist KA ± SD, 5HT3A: competitive antagonist (^C), vs 5-HT; for Kd: read-out: Antagonist KA ± SD, 5HT3A; for Functional properties at 5HT3A receptors (agonist / antagonist, type): functional screening and characterization; for EC50: read-out: Agonist EC50 ± SD, 5HT3A
Description: (§1) Initially, the agonist properties of tested compounds were assessed directly. […] All α7-nAChR functional assays were performed in the presence of PNU-120596, an α7-nAChR positive allosteric modulator (PAM), to increase signal and delay the sensitization state of α7-nAChRs enabling the measurement of more prolonged FRET signals.^29 Compounds having agonist responses of >0.20 were determined for EC50, and compounds having inhibition fraction of >0.50 were determined for KA.^25 EC50>13.3 μM and KA>10 μM which are a screening concentration for agonist and antagonist, respectively were reported compounds not taken for further in the screening of receptor occupation and responses.
(§2) Agonist and antagonist elicited responses were characterized using the above CNiFER cell expressing Cys-loop ligand-gated ion channel (LGIC) receptors. […] A 96-well black, clear-bottom microplate (Greiner bio-one, Germany) was coated with poly-D-lysine (Sigma-Aldrich, St. Louis, Mo.) 50 μL/well for 30 min and washed out with Phosphate-Buffered Saline (PBS) (Corning, Cellgro, Manassas, Va.) before plating the cells. After plating and incubation at 37° C. for 1 day, the media was replaced with 100 μL of artificial cerebrospinal fluid (aCSF: 121 mM NaCl, 5 mM KCl, 26 mM NaHCO3, 1.2 mM NaH2PO4H2O, 10 mM glucose, 2.4 mM CaCl2, 1.3 mM MgSO4, 5 mM HEPES, pH 7.4) for 4032 and 5HT3A receptors, whereas 10 μM PNU-120596 (Tocris Bioscience, Bristol, UK) in aCSF with 30 min incubation at 37° C. was used for α7-nAChR. The tested compounds were prepared in aCSF for all receptors except α7-nAChR, where 10 μM PNU-120596, a positive allosteric modulator (PAM) was used. The prepared compounds were added in a separate 96-well polypropylene plate (Costar, Corning, N.Y.). Experiments were conducted at 37° C. using 436-nm excitation. Emitted light was collected at 485 nm and 528 nm. Basal fluorescence was recorded for 30 s, followed by addition of 50 μL of ligand (first addition). Measurements were made at 3.84 s intervals for 2 min to measure the agonistic effect. […] Agonist and antagonist properties were sequentially screened at the final concentration of 13.3 and 10 μM, respectively, which differed from the screening concentration from intact cell binding assay (10 μM).

α4β2-nAChRs [3] = molecular target: T2, α4β2-nAChRs (Homo sapiens, UniProt P17787+P43681); test: as above; format: cell-based; settings: for Functional properties at α4β2-nAChRs (agonist / antagonist, type): functional screening and characterization
T2 construct: expressed in transfected cells; host or cells: HEKtsA201 cells co-expressing TN-XXL
Description: as §1, §2

α7-nAChRs = molecular target: T3, α7-nAChRs (Homo sapiens, UniProt P36544); test: as above; format: cell-based; settings: for EC50: in presence of 10 μM PNU-120596, * partial agonist, read-out: Agonist EC50 ± SD, α7
T3 construct: expressed in transfected cells; host or cells: HEKtsA201 cells co-expressing TN-XXL
Description: as §1, §2

[4] = molecular target: α7/5HT3A chimera receptor (hα7/m5HT3A), used for α7-nAChRs (UniProt P23979+P36544, M226I/T225I); test: Intact cell competitive radioligand binding assay ([3H]-(±)-epibatidine, SPA), LGIC-CNiFERs; settings: for Kd: read-out: Kd ± SD, α7-nAChRs, >10 = did not pass initial screen at 10 μM
α4β2-nAChRs [5] = molecular target: T2, α4β2-nAChRs; test: as above; settings: 10 μM, more than 50% radioligand displacement
[6] = >10 = did not pass initial screen
[7] = read-out: Antagonist KA ± SD, α4β2
[8] = read-out: Antagonist KA ± SD, α4β2, non-competitive
[9] = non-competitive antagonist (^NC)
[10] = competitive antagonist (^C), >10 = did not pass initial screen, vs (±)-epibatidine
[11] = competitive antagonist (^C), >10 = did not pass initial screen, vs (±)-epibatidine, read-out: Antagonist KA ± SD, α4β2
[12] = Antagonist KA ± SD, α4β2, competitive antagonist (^C), >10 = did not pass initial screen, vs (±)-epibatidine

SMILES | Kd (5HT3A receptors [2]; [6]) | Functional properties at 5HT3A receptors (agonist / antagonist, type) (5HT3A receptors [2]) | EC50 (5HT3A receptors [2]) | EC50 (α7-nAChRs; [6]) | Kd [4] | also measured
c1cc2cc(-c3cn(CCN4CCCCC4)nn3)ccc2[nH]1 [IND1, 5-(1-(2-(Piperidin-1-yl)ethyl)-1H-1,2,3-triazol-4-yl)-1H-indole] | > 10 µM | agonist and antagonist responses were not observed | > 10 µM | 0.17 µM | – | Kd (5HT3A receptors [1]; read-out: Kd ± SD, 5HT3A): 5.52 µM; Kd (α4β2-nAChRs [3]; [7]): > 10 µM; Fold increase in α7-nAChR agonist potency over lead compound TTIn-1 (α7-nAChRs): 3.5 fold
c1cc2cc(-c3cn(CCCN4CCCCC4)nn3)ccc2[nH]1 [IND2, 5-(1-(3-(Piperidin-1-yl)propyl)-1H-1,2,3-triazol-4-yl)-1H-indole] | – | agonist and antagonist responses were not observed | – | 2.2 µM | 7.2 µM | –
CN1[C@@H]2CCC[C@H]1CC(n1cc(-c3ccc4[nH]ccc4c3)nn1)C2 (stereo partly drawn) [IND7, 5-(1-((1R,5S)-9-Methyl-9-azabicyclo[3.3.1]nonan-3-yl)-1H-1,2,3-triazol-4-yl)-1H-indole] | – | agonist and antagonist responses were not observed | – | – | 4.52 µM | Functional properties at α4β2-nAChRs (agonist / antagonist, type) (α4β2-nAChRs [3]): weak antagonistic properties; Kd (α4β2-nAChRs [3]; [8]): 22.2 µM
CN1CCCC(n2cc(-c3ccc4[nH]ccc4c3)nn2)C1 (stereo not drawn) [IND11, 5-(1-(1-Methylpiperidin-3-yl)-1H-1,2,3-triazol-4-yl)-1H-indole] | – | – | – | 3.3 µM | 5.07 µM | –
CN(C)CCn1cc(-c2ccc3[nH]ccc3c2)nn1 [IND12, 5-(1-(2-(N,N-Dimethylamino)ethyl)-1H-1,2,3-triazol-4-yl)-1H-indole] | – | mix-competitive antagonist | – | 5.74 µM | 7.68 µM | –
c1cc2cc(-c3cn(CCN4CCCC4)nn3)ccc2[nH]1 [IND13, 5-(1-(2-(Pyrrolidin-1-yl)ethyl)-1H-1,2,3-triazol-4-yl)-1H-indole] | – | – | – | 2.17 µM | 4.84 µM | –
O=Cc1c[nH]c2ccc(-c3cn(CCN4CCCCC4)nn3)cc12 [PPRD5, 5-((1-(2-Piperidin-1-yl)ethyl)-1,2,3-triazol-4-yl)-indole-3-carbaldehyde] | > 10 µM | – | > 10 µM | 1.05 ± 0.17 µM | 3.27 µM | Kd (α4β2-nAChRs [3]; [7]): > 10 µM
Cn1ccc2cc(-c3cn(CCN4CCCCC4)nn3)ccc21 [PPRD9, 1-(2-((1-Methyl-5-indolyl)-1,2,3-triazol-1-yl)ethyl)piperidine] | – | mixed (competitive,non-competive) antagonist | – | 12.9 µM | 12.1 µM | Antagonist KA ± SD, 5HT3A (5HT3A receptors [2]; [6]): 15.1 ± 4.0^C, μM; Antagonist KA ± SD, 5HT3A, non-competitive (5HT3A receptors [2]; [9]): 56.0 ± 31.0^NC μM; Antagonist KA ± SD, α4β2 (α4β2-nAChRs [3]; [10]): 10.5 ± 3.1^C,^ μM; Functional properties at α4β2-nAChRs (agonist / antagonist, type) (α4β2-nAChRs [3]): α4β2-nAChR antagonists; also recorded: mix-competitive antagonist; Antagonist KA ± SD, α4β2, non-competitive (α4β2-nAChRs [3]; [9]): 25.5 ± 12.8^NC μM
c1ccc2c(-c3cn(CCN4CCCCC4)nn3)c[nH]c2c1 [PPRD12] | – | competitive antagonist | – | – | – | Kd (5HT3A receptors [1]; read-out: Kd ± SD, 5HT3A): 2.55 µM and 2.6 µM; Antagonist KA ± SD, 5HT3A (5HT3A receptors [2]; [6]): 2.1 ± 0.3^C μM; Kd (α4β2-nAChRs [3]; [11]): >10 µM; Antagonist KA ± SD, α7 (α7-nAChRs; [10]): 4.5 ± 1.5^C, μM; Functional properties at α7-nAChRs (agonist / antagonist) (α7-nAChRs; functional screening and characterization): weak and non-selective α7-nAChR antagonists; Antagonist KA ± SD, α7, non-competitive (α7-nAChRs; [9]): 11.3 ± 4.5^NC μM
COC(=O)c1cc(-c2cn(CCN3CCCCC3)nn2)ccc1O [PPRD14, Methyl 2-hydroxy-5-(1-(2-(piperidin-1-yl)ethyl)-1,2,3-triazol-4-yl)benzoate] | 1.44 µM and 1.4 µM | competitive antagonist | – | > 10 µM | > 10 µM | Kd (α4β2-nAChRs [3]; [7]): > 10 µM; Kd (α7-nAChRs; competitive antagonist (^C), >10 = did not pass initial screen, vs (±)-epibatidine, read-out: Antagonist KA ± SD, α7): > 10 µM
COC(=O)c1cc(-c2cn(CCN3CCCCC3)nn2)ccc1N [PPRD15, Methyl 2-amino-5-(1-(2-(piperidin-1-yl)ethyl)-1,2,3-triazol-4-yl)benzoate] | 6 µM | competitive antagonist | – | 3.1 µM | 4.4 µM | Kd (α4β2-nAChRs [3]; [7]): > 10 µM
c1cc2c(cc1-c1cn(C3CN4CCC3CC4)nn1)OCO2 (stereo not drawn) [QND1, 3-(4-(Benzo-1,3-dioxol-5-yl)-1,2,3-triazol-1-yl)quinuclidine] | – | – | 0.3 ± 0.04 µM | 0.12 ± 0.04 µM | 0.16 µM | Kd (5HT3A receptors [1]; Kd ± SD, 5HT3A): 0.02 to 0.05 µM; Kd (α4β2-nAChRs [3]; [12]): > 10 µM
Nc1ccc(-c2cn(C3CN4CCC3CC4)nn2)cc1 (stereo not drawn) [QND2, 3-(4-Aminophenyl-1,2,3-triazol-1-yl)quinuclidine] | – | 5HT3A receptor agonist properties | – | 0.05 µM | – | Kd (5HT3A receptors [1]; read-out: Kd ± SD, 5HT3A): 1.21 µM; EC50 (5HT3A receptors [2]; * partial agonist, >10 = did not pass initial screen): 1.63 ± 0.29 µM; Kd (α4β2-nAChRs [3]; [11]): >10 µM; Fold increase in α7-nAChR agonist potency over lead compound TTIn-1 (α7-nAChRs): 20 fold
COc1ccc2cc(-c3cn(C4CN5CCC4CC5)nn3)ccc2c1 (stereo not drawn) [QND6, 3-(4-(6-Methoxynaphthalen-2-yl)-1,2,3-triazol-1-yl)quinuclidine] | > 10 µM | – | > 10 µM | 22 ± 6 µM | – | Initial screening for binding to α4β2-nAChRs (α4β2-nAChRs [5]): associate well with α4β2-nAChRs; Kd (α4β2-nAChRs [3]; [12]): 7 ± 4.5 µM; Functional properties at α4β2-nAChRs (agonist / antagonist, type) (α4β2-nAChRs [3]): mix-competitive antagonist; Kd (α4β2-nAChRs [3]; [8]): 6.2 ± 0.4 µM
c1ccc2c(-c3cn(C4CN5CCC4CC5)nn3)c[nH]c2c1 (stereo not drawn) [QND12, 3-(4-(Indol-3-yl)-1,2,3-triazol-1-yl)quinuclidine] | – | – | 0.34 ± 0.13 µM | 0.45 ± 0.14 µM | 0.92 µM | Kd (5HT3A receptors [1]; Kd ± SD, 5HT3A): 0.02 to 0.05 µM and 0.02 µM; Kd (α4β2-nAChRs [3]; [12]): > 10 µM; Fold increase of Kd (α7-nAChRs) compared to IND8 [4]: 9 fold
COC(=O)c1cc(-c2cn(C3CN4CCC3CC4)nn2)ccc1N (stereo not drawn) [QND15, Methyl 2-amino-5-(1-(quinuclidin-3-yl)-1H-1,2,3-triazol-4-yl)benzoate] | – | 5HT3A receptor agonist properties | 0.26 ± 0.03 µM | 1.34 µM | 3.61 µM | Kd (5HT3A receptors [1]; Kd ± SD, 5HT3A): 0.04 µM; Kd (α4β2-nAChRs [3]; [12]): 11.6 ± 1 µM; Functional properties at α4β2-nAChRs (agonist / antagonist, type) (α4β2-nAChRs [3]): competitive antagonism; Fold lower affinity for α7-nAChRs than QND2 [4]: 10 fold
